Assay results taken from US20230339871A1, “COMPOUNDS AND METHODS OF MODULATING 17B-HYDROXYSTEROID DEHYDROGENASE TYPE 13” (METREA BIOSCIENCES, INC., priority 2020, published 2023).
pIC50: −log10 of the molar value. Values belong to the compound of their own block, whether it stands above or below them.

Key:
[1] = RESOLVE-IT, NCT02704403; cited from earlier work
[2] = biological target: T1, recombinant human full-length HSD17B13 protein (Homo sapiens, UniProt Q7Z5P4); experiment: HSD17B13 96 luminescence inhibition assay (NAD(P)H-Glo); type: biochemical
T1 construct: recombinant human full-length HSD17B13 protein; 6xHis (C); made in house; host or cells: HEK293E-253/FH
T1 sequence (Q7Z5P4 20-300): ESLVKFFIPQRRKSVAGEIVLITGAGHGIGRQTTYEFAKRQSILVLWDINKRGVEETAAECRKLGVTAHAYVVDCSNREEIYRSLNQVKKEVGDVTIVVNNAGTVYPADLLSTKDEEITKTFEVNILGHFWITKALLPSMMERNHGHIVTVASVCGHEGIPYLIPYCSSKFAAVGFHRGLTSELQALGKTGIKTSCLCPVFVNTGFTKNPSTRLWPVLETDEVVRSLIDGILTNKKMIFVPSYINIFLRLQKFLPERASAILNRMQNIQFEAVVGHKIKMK
Method: Compounds of the present disclosure were tested for inhibition of HSD17B13 using the following protocol. Briefly, recombinant human full-length HSD17B13 protein with a 6X-C-terminal His tag was expressed in cell line HEK293E-253/FH and purified using Ni^2+-affinity purification. Enzymatic activity was determined through the production of NADH using the NAD(P)H-Glo Detection System (Promega). The inhibitory activity of test compounds was determined in reactions performed at 30° C. in assay buffer consisting of 25 mM EPPS (8.0), 125 mM NaCl, 0.03% Triton X-100, 0.03% BSA, with […] steroid substrate (1,3,5(10), 7-estratetraen-3, 17b-diol (Steraloids E0580)) added from a 2.5 mM DMSO stock and 500 mM NAD. The final percentage of DMSO was 4.5%. After a one-hour incubation, a 20% volume of luciferase Glo-reagent was added and light units captured on a Victor V Plate Reader (Perkin Elmer).
Concentration-response curves for inhibitors were normalized to control samples containing enzyme only (negative control) and sample without enzyme (positive control). 50% inhibition (IC50) values were determined using a nonlinear least squares fit of the data to a four-parameter equation using Prism 6.0 (GraphPad Software, San Diego).

HepG2 cells = experiment: Toxicity to HepG2 cells in the cytokine expression experiment; type: cell-based, human; settings: 30 μM
Method: (§1) To examine the effect of HSD17B13 inhibitors on inflammatory cytokine expression HepG2 cells were exposed to various concentrations of HSD17B13 inhibitors. Briefly, HepG2 cells, an immortalized human liver cancer cell line, were modified to overexpress HSD17B13. Cells were grown in EMEM (ATCC) with 10% FBS and penicillin/streptomycin. One day prior to transfection 750,000 cells were plated per well in a 6 well plate and cultured overnight. […] of pCMV6-Entry-HSD17B13 or empty vector (Origene) were transfected using Lipofectamine 3000 (Invitrogen) and the cells were cultured for 24 hours. Cells were split into selection media ([…] G418 (Gibco)) and a stable pool was established and verified by qPCR and western blotting using an anti-Flag antibody (Genscript). HepG2 cells overexpressing HSD17B13 or empty vector control, were seeded at 400,000 cells per well in 12 well plates and cultured overnight. Media was replaced with serum-free EMEM and cultured an additional night. […]
(§2) […] RNA quality and concentration were determined on a Nanodrop. cDNA was synthesized from 1 μg RNA using iScript reverse transcription supermix (Biorad) and rtPCR performed with 1 μl cDNA using SsoAdvanced Universal Probes Supermix (Biorad). […]

IL-32 = IL-32 gene expression in HepG2 cells overexpressing HSD17B13 under fatty acid challenge; type: cell-based, human
Method: To examine the effect of HSD17B13 inhibitors on inflammatory cytokine expression HepG2 cells were exposed to various concentrations of HSD17B13 inhibitors. Briefly, HepG2 cells, an immortalized human liver cancer cell line, were modified to overexpress HSD17B13. Cells were grown in EMEM (ATCC) with 10% FBS and penicillin/streptomycin. One day prior to transfection 750,000 cells were plated per well in a 6 well plate and cultured overnight. […] of pCMV6-Entry-HSD17B13 or empty vector (Origene) were transfected using Lipofectamine 3000 (Invitrogen) and the cells were cultured for 24 hours. Cells were split into selection media ([…] G418 (Gibco)) and a stable pool was established and verified by qPCR and western blotting using an anti-Flag antibody (Genscript). HepG2 cells overexpressing HSD17B13 or empty vector control, were seeded at 400,000 cells per well in 12 well plates and cultured overnight. Media was replaced with serum-free EMEM and cultured an additional night. A 12 mM fatty acid stock of oleic acid/palmitate at a 2:1 ratio was prepared in 10% fatty acid free BSA (Sigma) by combining 8 mM oleic acid and 4 mM palmitate and rotating overnight at 30° C. The solution was then sonicated for an additional 45 minutes to solubilize.
[…] The cells were lysed in RLT buffer and RNA purified using a Qiagen RNeasy mini kit. RNA quality and concentration were determined on a Nanodrop. cDNA was synthesized from 1 μg RNA using iScript reverse transcription supermix (Biorad) and rtPCR performed with 1 μl cDNA using SsoAdvanced Universal Probes Supermix (Biorad). Taqman probes (Thermo Fisher) were used to look at effects of fatty acids and HSD17B13 inhibitors on IL-8 and IL-32 gene expression using GAPDH as an endogenous control.

IL-8 = IL-8 gene expression in HepG2 cells overexpressing HSD17B13 under fatty acid challenge; type: cell-based, human
Method: as §1, §2

[3] = 3 µM, 10 µM, or 30 µM, saturated fatty acid NASH challenge
[4] = 3-hour exposure to 3 μM, 10 μM, or 30 μM, fold change relative to untreated cells

SMILES: CSc1ccc(C(=O)/C=C/c2cc(C)c(OC(C)(C)C(=O)O)c(C)c2)cc1 [Elafibranor]
- Status (as of May 2020) [1]: Completed - failed

- pIC50 [2]: ≥ 6.00
SMILES: NS(=O)(=O)c1cccc(CN2C(=O)S/C(=C\c3ccc(F)c(O)c3)C2=O)c1 [Compound 33, (Z)-3-((5-(4-fluoro-3-hydroxybenzylidene)-2,4-dioxothiazolidin-3-yl)methyl) benzenesulfonamide]

- pIC50 [2]: ≥ 6.00
SMILES: CS(=O)(=O)c1cccc(CN2C(=O)S/C(=C\c3c(F)cc(F)c(O)c3F)C2=O)c1 [Compound 5, (Z)-3-(3-(methylsulfonyl)benzyl)-5-(2,4,6-trifluoro-3-hydroxybenzylidene) thiazolidine-2,4-dione]
- toxicity to the cells (HepG2 cells): some toxicity
- reduction in IL-32 expression (IL-32; 3 μM dose): 60-70%
- expression of IL-32 (FIG. 1B) (IL-32; [3]): decreased expression
- relative expression levels of IL-32 (IL-32; [4]): decreased
- expression of IL-8 (FIG. 1A) (IL-8; [3]): decreased expression
- relative expression levels of IL-8 (IL-8; [4]): decreased

- pIC50 [2]: < 5.30
SMILES: O=C(NCc1cccc(O)c1)c1cc2cc(O)c(F)cc2cn1 [Compound 26, 7-fluoro-6-hydroxy-N-(3-hydroxybenzyl)isoquinoline-3-carboxamide]

- pIC50 [2]: 5.30 to 6.00
SMILES: O=C1S/C(=C\c2ccc(F)c(O)c2)C(=O)N1Cc1cc(O)ccc1F [Compound 8, (Z)-5-(4-fluoro-3-hydroxybenzylidene)-3-(2-fluoro-5-hydroxybenzyl)thiazolidine-2,4-dione]
